Assay results reported in US20250195521A1 (Revolution Medicines, Inc., priority 2020, published 2025).

What was measured:
[1] = molecular target: NRAS WT binding to BRAF RBD (Homo sapiens (Human), UniProt P01111+P62937); assay: Ras-Raf disruption/FRET/MOA assay, NRAS WT; assay type: biochemical
Excerpt: (§1) Disruption of B-Raf Ras-binding Domain (BRAF^RBD) Interaction with K-Ras by Compounds of the Invention (also called a FRET assay or an MOA assay)
(§2) Note—The following protocol describes a procedure for monitoring disruption of K-Ras G12C(GMP-PNP) binding to BRAF^RBD by a compound of the invention. This protocol may also be executed substituting other Ras proteins or nucleotides.
(§3) The purpose of this biochemical assay was to measure the ability of test compounds to facilitate ternary complex formation between a nucleotide-loaded K-Ras isoform and Cyclophilin A; the resulting ternary complex disrupts binding to a BRAF^RBD construct, inhibiting K-Ras signaling through a RAF effector. Data is reported as IC50 values.
(§4) In assay buffer containing 25 mM HEPES pH 7.3, 0.002% Tween20, 0.1% BSA, 100 mM NaCl and 5 mM MgCl2, tagless Cyclophilin A, His6-K-Ras-GMPPNP, and GST-BRAF^RBD were combined in a 384-well assay plate at final concentrations of 25 μM, 12.5 nM and 50 nM, respectively. Compound was present in plate wells as a 10-point 3-fold dilution series starting at a final concentration of 30 μM. After incubation at 25° C. for 3 hours, a mixture of Anti-His Eu—W1024 and anti-GST allophycocyanin was then added to assay sample wells at final concentrations of 10 nM and 50 nM, respectively, and the reaction incubated for an additional 1.5 hours. […] Compounds that facilitate disruption of a K-Ras: RAF complex were identified as those eliciting a decrease in the TR-FRET ratio relative to DMSO control wells.

[2] = molecular target: NRAS Q61K binding to BRAF RBD (Homo sapiens (Human), UniProt P01111+P62937, Q61K); assay: Ras-Raf disruption/FRET/MOA assay, NRAS Q61K; assay type: biochemical
Excerpt: as §1, §2, §3, §4

NCI-H358 (K-Ras G12C) = assay: CellTiter-Glo cell viability assay, NCI-H358; assay type: cell-based, human; settings: Homo sapiens, NCI-H358, 120 h, 5-day treatment; read-out: H358 Cell Viability assay data (K-Ras G12C, IC50)
In short: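 Viability is measured as ATP-dependent luminescence (CellTiter-Glo) five days into compound treatment. Responses are normalized to vehicle (DMSO) wells and fitted by four-parameter logistic regression.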

[3] = tested on: K-Ras G12C (NCI-H358 cells); assay: Potency assay: pERK in NCI-H358 cells; assay type: cell-based, human; settings: Homo sapiens; NCI-H358 cells, 4 hours; read-out: pERK EC50 (H358 KRAS G12C)
In short: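 Cells plated the day before were exposed for 4 h at 37° C, 5% CO2 to a 10-point, 3-fold DMSO dilution series (10 mM top stock), in duplicate. Phospho-ERK was read by AlphaLISA SureFire Ultra or by In-Cell Western with DRAQ5 DNA stain, and IC50 came from a 4-parameter sigmoidal fit.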

[4] = molecular target: K-Ras G12C(GMP-PNP) binding to BRAF RBD (Homo sapiens (Human), UniProt P01116+P62937, G12C); assay: Disruption of BRAF RBD interaction with K-Ras (FRET / MOA assay), K-Ras G12C; assay type: biochemical; settings: read-out: KRAS G12C FRET IC50
In short: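 First, test compounds in a 10-point 3-fold series (30 μM final top) were incubated for 3 hours at 25° C with nucleotide-loaded Ras, cyclophilin A and a BRAF RBD construct. Next, Eu anti-His and allophycocyanin anti-GST detection reagents were added for 1.5 hours. Finally, IC50s were derived from loss of TR-FRET signal against DMSO.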

[5] = molecular target: KRAS Q61H binding to BRAF RBD (Homo sapiens (Human), UniProt P01116+P62937, Q61H); assay: Ras-Raf disruption/FRET/MOA assay, KRAS Q61H; assay type: biochemical
Excerpt: as §1, §2, §3, §4

[6] = molecular target: NRAS Q61R binding to BRAF RBD (Homo sapiens (Human), UniProt P01111+P62937, Q61R); assay: Ras-Raf disruption/FRET/MOA assay, NRAS Q61R; assay type: biochemical
Excerpt: as §1, §2, §3, §4

[7] = molecular target: KRAS G13D binding to BRAF RBD (Homo sapiens (Human), UniProt P01116+P62937, G13D); assay: Ras-Raf disruption/FRET/MOA assay, KRAS G13D; assay type: biochemical
In short: (§5)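 TR-FRET ratio drop relative to DMSO wells marks disruption of the Ras–RAF complex, reported as IC50. Compounds promote a Ras(nucleotide)–cyclophilin A ternary complex that blocks BRAF RBD binding; dosing was 10 points, 3-fold, top 30 μM final, 3 h at 25° C before detection.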

[8] = molecular target: NRAS G12C binding to BRAF RBD (Homo sapiens (Human), UniProt P01111+P62937, G12C); assay: Ras-Raf disruption/FRET/MOA assay, NRAS G12C; assay type: biochemical
In short: as §5

Chain of K-Ras G12C(GMP-PNP) binding to BRAF RBD (P01116 other isoform, or with tags, fused parts or gaps G12C): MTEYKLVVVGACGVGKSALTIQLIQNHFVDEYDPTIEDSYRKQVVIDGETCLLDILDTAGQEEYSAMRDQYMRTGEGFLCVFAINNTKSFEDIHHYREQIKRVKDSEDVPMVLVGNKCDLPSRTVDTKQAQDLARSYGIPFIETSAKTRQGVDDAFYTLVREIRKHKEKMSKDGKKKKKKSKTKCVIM
Chain of K-Ras G12C(GMP-PNP) binding to BRAF RBD (P62937 whole entry): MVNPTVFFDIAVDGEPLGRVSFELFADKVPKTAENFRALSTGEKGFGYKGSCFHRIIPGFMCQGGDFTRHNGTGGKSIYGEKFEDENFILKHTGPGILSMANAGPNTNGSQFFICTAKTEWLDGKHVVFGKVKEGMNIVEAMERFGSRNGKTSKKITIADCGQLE
Chain of KRAS Q61H binding to BRAF RBD (P01116 other isoform, or with tags, fused parts or gaps Q61H): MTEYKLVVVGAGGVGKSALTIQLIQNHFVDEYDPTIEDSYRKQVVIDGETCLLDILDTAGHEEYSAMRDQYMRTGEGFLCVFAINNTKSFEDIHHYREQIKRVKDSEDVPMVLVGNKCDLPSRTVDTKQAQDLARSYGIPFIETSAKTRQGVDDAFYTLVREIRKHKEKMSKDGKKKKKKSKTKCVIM
Chain of KRAS Q61H binding to BRAF RBD (P62937 whole entry): as the sequence (P62937 whole entry) above
Chain of NRAS WT binding to BRAF RBD (P01111 whole entry, the tested form may be a part): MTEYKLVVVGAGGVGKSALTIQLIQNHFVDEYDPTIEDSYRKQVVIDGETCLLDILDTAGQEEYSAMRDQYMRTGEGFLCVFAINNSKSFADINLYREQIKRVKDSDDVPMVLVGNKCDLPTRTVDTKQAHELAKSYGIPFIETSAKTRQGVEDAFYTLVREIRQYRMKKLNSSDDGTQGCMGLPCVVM
Chain of NRAS WT binding to BRAF RBD (P62937 whole entry, the tested form may be a part): as the sequence (P62937 whole entry) above
Chain of NRAS Q61R binding to BRAF RBD (P01111 whole entry Q61R): as the sequence (P01111 whole entry, the tested form may be a part) above, with Q61R counted along it
Chain of NRAS Q61R binding to BRAF RBD (P62937 whole entry): as the sequence (P62937 whole entry) above
Chain of NRAS Q61K binding to BRAF RBD (P01111 whole entry Q61K): as the sequence (P01111 whole entry, the tested form may be a part) above, with Q61K counted along it
Chain of NRAS Q61K binding to BRAF RBD (P62937 whole entry): as the sequence (P62937 whole entry) above
Chain of KRAS G13D binding to BRAF RBD (P01116 other isoform, or with tags, fused parts or gaps G13D): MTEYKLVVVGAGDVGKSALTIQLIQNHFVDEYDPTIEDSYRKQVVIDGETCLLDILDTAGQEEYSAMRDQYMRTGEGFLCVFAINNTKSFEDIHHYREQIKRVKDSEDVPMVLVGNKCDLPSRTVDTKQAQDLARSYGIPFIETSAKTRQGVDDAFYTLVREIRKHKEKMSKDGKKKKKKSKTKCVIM
Chain of KRAS G13D binding to BRAF RBD (P62937 whole entry): as the sequence (P62937 whole entry) above
Chain of NRAS G12C binding to BRAF RBD (P01111 whole entry G12C): as the sequence (P01111 whole entry, the tested form may be a part) above, with G12C counted along it
Chain of NRAS G12C binding to BRAF RBD (P62937 whole entry): as the sequence (P62937 whole entry) above

Which results are given for `C=CC(=O)C1CC[C@H](C(=O)N(C)[C@H](C(=O)N[C@H]2Cc3cccc(c3)-c3ccc4c(c3)c(c(-c3cccnc3[C@H](C)OC)n4CC)CC(C)(C)COC(=O)[C@@H]3CCCN(N3)C2=O)C(C)(C)F)C1` (stereo partly drawn) [Compound A693]?
IC50 [1]: 1000 to 10000 nM; IC50 [2]: 1000 to 10000 nM; IC50 (NCI-H358 (K-Ras G12C)): 100 to 1000 nM; EC50 [3]: < 5000 nM; IC50 [4]: 100 to 1000 nM; IC50 [5]: 1000 to 10000 nM; IC50 [6]: 1000 to 10000 nM; IC50 [7]: 1000 to 10000 nM; IC50 [8]: 100 to 1000 nM

What does the source list for `CCn1c(-c2cccnc2[C@H](C)OC)c2c3cc(ccc31)-c1csc(n1)C[C@H](NC(=O)[C@H](C(C)C)N(C)C(=O)C1CCN(C(=O)/C=C/CN(C)C)C3(CC3)C1)C(=O)N1CCC[C@H](N1)C(=O)OCC(C)(C)C2` (stereo partly drawn) [Compound A701]?
IC50 [1]: 100 to 1000 nM; IC50 [2]: 10 to 100 nM; IC50 (NCI-H358 (K-Ras G12C)): 10 to 100 nM; EC50 [3]: < 5000 nM; IC50 [4]: 10 to 100 nM; IC50 [5]: 10 to 100 nM; IC50 [6]: 100 to 1000 nM; IC50 [7]: 100 to 1000 nM; IC50 [8]: 10 to 100 nM

What does the source list for `CCn1c(-c2cccnc2[C@H](C)OC)c2c3cc(ccc31)-c1csc(n1)C[C@H](NC(=O)[C@H](C(C)C)N(C)C(=O)C1CCN(C(=O)/C=C/CN(C)C)C[C@@H]1C)C(=O)N1CCC[C@H](N1)C(=O)OCC(C)(C)C2` (stereo partly drawn) [Compound A709]?
IC50 [1]: 10 to 100 nM; IC50 [2]: 10 to 100 nM; IC50 (NCI-H358 (K-Ras G12C)): 10 to 100 nM; EC50 [3]: < 5000 nM; IC50 [4]: 10 to 100 nM; IC50 [5]: 10 to 100 nM; IC50 [6]: 100 to 1000 nM; IC50 [7]: 100 to 1000 nM; IC50 [8]: 10 to 100 nM

For `CCn1c(-c2cccnc2[C@H](C)OC)c2c3cc(ccc31)N1CCO[C@@H](C[C@H](NC(=O)[C@H](C(C)C)N(C)C(=O)[C@@]3(F)CCN(C(=O)C#CC(C)(C)N4CCC4)C3)C(=O)N3CCC[C@H](N3)C(=O)OCC(C)(C)C2)C1` [Compound A726], which IC50 [1] is on record?
The IC50 was 1000 to 10000 nM.

And the IC50 [2]?
The IC50 was > 10000 nM.

What about the IC50 (NCI-H358 (K-Ras G12C)) of the same molecule?
Its IC50 is < 10 nM.

And the EC50 [3]?
Its EC50 is < 5000 nM.

What about the IC50 [4] of the same molecule?
Its IC50 is < 10 nM.

What about the IC50 [5] of the same molecule?
The IC50 was 1000 to 10000 nM.

What about the IC50 [6] of the same molecule?
The IC50 was > 10000 nM.

And the IC50 [7]?
Its IC50 is 1000 to 10000 nM.

And the IC50 [8]?
Its IC50 is 10 to 100 nM.
